Data: patent US10131652B2, “Pyrimidinyloxy benzene derivatives as herbicides” (E. I. DU PONT DE NEMOURS AND COMPANY, priority 2014, dated 2018)
Read-outs that look alike come from different tables or passages of the source.

How the values were obtained:
Test in all cases: Test E pre-/postemergence plant response
Assay type in all cases: in vivo
wild oat (Avena fatua) = conditions: scale 0 to 100, read-out: Plant response rating, Oat, Wild; for pest or weed control at 16 g/ha: 16 g ai/ha; for pest or weed control at 31 g/ha: 31 g ai/ha; for pest or weed control at 62 g/ha: 62 g ai/ha; for pest or weed control at 125 g/ha: 125 g ai/ha
In short: (§1)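 Visual scores on a 0–100 scale (100 = complete control) were assigned against untreated controls 7–21 days after treatment in a controlled environment. Compounds, formulated with solvent plus surfactant, were applied to pre-emergence silt-loam sowings or to 1- to 4-leaf plants (2–18 cm) in potting medium.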

[1] = tested on: galium (catchweed bedstraw, Galium aparine); conditions: scale 0 to 100, read-out: Plant response rating, Galium; for pest or weed control at 16 g/ha: 16 g ai/ha; for pest or weed control at 31 g/ha: 31 g ai/ha; for pest or weed control at 62 g/ha: 62 g ai/ha; for pest or weed control at 125 g/ha: 125 g ai/ha
In short: as §1

[2] = tested on: wild radish (Raphanus raphanistrum); conditions: scale 0 to 100, read-out: Plant response rating, Radish, Wild; for pest or weed control at 16 g/ha: 16 g ai/ha; for pest or weed control at 31 g/ha: 31 g ai/ha; for pest or weed control at 62 g/ha: 62 g ai/ha; for pest or weed control at 125 g/ha: 125 g ai/ha
In short: as §1

[3] = tested on: field violet (Viola arvensis); conditions: scale 0 to 100, read-out: Plant response rating, Field Violet; for pest or weed control at 16 g/ha: 16 g ai/ha; for pest or weed control at 31 g/ha: 31 g ai/ha; for pest or weed control at 62 g/ha: 62 g ai/ha; for pest or weed control at 125 g/ha: 125 g ai/ha
In short: as §1

[4] = tested on: deadnettle (henbit deadnettle, Lamium amplexicaule); conditions: scale 0 to 100, read-out: Plant response rating, Deadnettle; for pest or weed control at 16 g/ha: 16 g ai/ha; for pest or weed control at 31 g/ha: 31 g ai/ha; for pest or weed control at 62 g/ha: 62 g ai/ha; for pest or weed control at 125 g/ha: 125 g ai/ha
In short: as §1

[5] = tested on: lambsquarters (Chenopodium album); conditions: scale 0 to 100, read-out: Plant response rating, Lambsquarters; for pest or weed control at 16 g/ha: 16 g ai/ha; for pest or weed control at 31 g/ha: 31 g ai/ha; for pest or weed control at 62 g/ha: 62 g ai/ha; for pest or weed control at 125 g/ha: 125 g ai/ha
In short: as §1

[6] = tested on: spring wheat (Triticum aestivum); conditions: scale 0 to 100, read-out: Plant response rating, Wheat, Spring; for plant injury at 16 g/ha: 16 g ai/ha; for plant injury at 62 g/ha: 62 g ai/ha; for plant injury at 125 g/ha: 125 g ai/ha
In short: as §1

[7] = tested on: oilseed rape (Brassica napus); conditions: scale 0 to 100, read-out: Plant response rating, Oilseed Rape; for plant injury at 16 g/ha: 16 g ai/ha; for plant injury at 31 g/ha: 31 g ai/ha; for plant injury at 62 g/ha: 62 g ai/ha; for plant injury at 125 g/ha: 125 g ai/ha
In short: as §1

[8] = tested on: winter wheat (Triticum aestivum); conditions: scale 0 to 100, read-out: Plant response rating, Wheat, Winter; for plant injury at 16 g/ha: 16 g ai/ha; for plant injury at 62 g/ha: 62 g ai/ha; for plant injury at 125 g/ha: 125 g ai/ha
In short: as §1

[9] = tested on: bluegrass (annual bluegrass, Poa annua); conditions: scale 0 to 100, read-out: Plant response rating, Bluegrass; for pest or weed control at 16 g/ha: 16 g ai/ha; for pest or weed control at 31 g/ha: 31 g ai/ha; for pest or weed control at 62 g/ha: 62 g ai/ha; for pest or weed control at 125 g/ha: 125 g ai/ha
In short: as §1

[10] = tested on: green foxtail (Setaria viridis); conditions: scale 0 to 100, read-out: Plant response rating, Foxtail, Green; for pest or weed control at 16 g/ha: 16 g ai/ha; for pest or weed control at 31 g/ha: 31 g ai/ha; for pest or weed control at 62 g/ha: 62 g ai/ha; for pest or weed control at 125 g/ha: 125 g ai/ha
In short: as §1

[11] = post-emergence, 31 g ai/ha, Postemergence

Work on `Fc1cccc(Oc2ncc(Br)cn2)c1-c1cc(C(F)F)no1` [Compound 145, 5-bromo-2-[2-[3-(difluoromethyl)-5-isoxazolyl]-3-fluorophenoxy]pyrimidine] yielded a pest or weed control at 16 g/ha (wild oat (Avena fatua); post-emergence, Postemergence) of 15%, a pest or weed control at 31 g/ha (wild oat (Avena fatua); post-emergence, Postemergence) of 30% and a pest or weed control at 62 g/ha (wild oat (Avena fatua); post-emergence, Postemergence) of 40%. It also gave a pest or weed control at 125 g/ha (wild oat (Avena fatua); post-emergence, Postemergence) of 80%, a pest or weed control at 16 g/ha (wild oat (Avena fatua); pre-emergence, Preemergence) of 25% and a pest or weed control at 31 g/ha (wild oat (Avena fatua); pre-emergence, Preemergence) of 30%. It also gave a pest or weed control at 62 g/ha (wild oat (Avena fatua); pre-emergence, Preemergence) of 30%, a pest or weed control at 125 g/ha (wild oat (Avena fatua); pre-emergence, Preemergence) of 85% and a pest or weed control at 16 g/ha ([1]; post-emergence, Postemergence) of 95%. It also gave a pest or weed control at 31 g/ha ([1]; post-emergence, Postemergence) of 95%, a pest or weed control at 62 g/ha ([1]; post-emergence, Postemergence) of 98% and a pest or weed control at 125 g/ha ([1]; post-emergence, Postemergence) of 100%. It also gave a pest or weed control at 16 g/ha ([1]; pre-emergence, Preemergence) of 25%, a pest or weed control at 31 g/ha ([1]; pre-emergence, Preemergence) of 100% and a pest or weed control at 62 g/ha ([1]; pre-emergence, Preemergence) of 100%. The pest or weed control at 125 g/ha ([1]; pre-emergence, Preemergence) was 100%, the pest or weed control at 16 g/ha ([2]; post-emergence, Postemergence) was 95% and the pest or weed control at 31 g/ha ([2]; post-emergence, Postemergence) was 100%. For the same molecule, the pest or weed control at 62 g/ha ([2]; post-emergence, Postemergence) was 100%, the pest or weed control at 125 g/ha ([2]; post-emergence, Postemergence) was 100% and the pest or weed control at 16 g/ha ([2]; pre-emergence, Preemergence) was 15%. The pest or weed control at 31 g/ha ([2]; pre-emergence, Preemergence) was 15%, the pest or weed control at 62 g/ha ([2]; pre-emergence, Preemergence) was 85% and the pest or weed control at 125 g/ha ([2]; pre-emergence, Preemergence) was 100%. It also gave a pest or weed control at 16 g/ha ([3]; post-emergence, Postemergence) of 65%, a pest or weed control at 31 g/ha ([3]; post-emergence, Postemergence) of 100% and a pest or weed control at 62 g/ha ([3]; post-emergence, Postemergence) of 90%. For the same molecule, the pest or weed control at 125 g/ha ([3]; post-emergence, Postemergence) was 100%, the pest or weed control at 16 g/ha ([3]; pre-emergence, Preemergence) was 100% and the pest or weed control at 31 g/ha ([3]; pre-emergence, Preemergence) was 100%. For the same molecule, the pest or weed control at 62 g/ha ([3]; pre-emergence, Preemergence) was 100%, the pest or weed control at 125 g/ha ([3]; pre-emergence, Preemergence) was 100% and the pest or weed control at 16 g/ha ([4]; post-emergence, Postemergence) was 100%. For the same molecule, the pest or weed control at 31 g/ha ([4]; post-emergence, Postemergence) was 100%, the pest or weed control at 62 g/ha ([4]; post-emergence, Postemergence) was 100% and the pest or weed control at 125 g/ha ([4]; post-emergence, Postemergence) was 100%. For the same molecule, the pest or weed control at 16 g/ha ([4]; pre-emergence, Preemergence) was 0%, the pest or weed control at 31 g/ha ([4]; pre-emergence, Preemergence) was 100% and the pest or weed control at 62 g/ha ([4]; pre-emergence, Preemergence) was 100%. It also gave a pest or weed control at 125 g/ha ([4]; pre-emergence, Preemergence) of 100%, a pest or weed control at 16 g/ha ([5]; post-emergence, Postemergence) of 90% and a pest or weed control at 31 g/ha ([5]; post-emergence, Postemergence) of 90%. The pest or weed control at 62 g/ha ([5]; post-emergence, Postemergence) was 95%, the pest or weed control at 125 g/ha ([5]; post-emergence, Postemergence) was 95% and the pest or weed control at 16 g/ha ([5]; pre-emergence, Preemergence) was 100%. The pest or weed control at 31 g/ha ([5]; pre-emergence, Preemergence) was 100%, the pest or weed control at 62 g/ha ([5]; pre-emergence, Preemergence) was 100% and the pest or weed control at 125 g/ha ([5]; pre-emergence, Preemergence) was 100%. The plant injury at 16 g/ha ([6]; post-emergence, Postemergence) was 30%, the plant injury at 31 g/ha [6, 11] was 35% and the plant injury at 62 g/ha ([6]; post-emergence, Postemergence) was 45%. The plant injury at 125 g/ha ([6]; post-emergence, Postemergence) was 55%, the plant injury at 16 g/ha ([6]; pre-emergence, Preemergence) was 15% and the plant injury at 62 g/ha ([6]; pre-emergence, Preemergence) was 20%. The plant injury at 125 g/ha ([6]; pre-emergence, Preemergence) was 70%, the plant injury at 16 g/ha ([7]; post-emergence, Postemergence) was 70% and the plant injury at 31 g/ha ([7]; post-emergence, Postemergence) was 100%. The plant injury at 62 g/ha ([7]; post-emergence, Postemergence) was 100%, the plant injury at 125 g/ha ([7]; post-emergence, Postemergence) was 100% and the plant injury at 16 g/ha ([7]; pre-emergence, Preemergence) was 50%. It also gave a plant injury at 31 g/ha ([7]; pre-emergence, Preemergence) of 100%, a plant injury at 62 g/ha ([7]; pre-emergence, Preemergence) of 100% and a plant injury at 125 g/ha ([7]; pre-emergence, Preemergence) of 100%. For the same molecule, the plant injury at 16 g/ha ([8]; post-emergence, Postemergence) was 15%, the plant injury at 31 g/ha [8, 11] was 20% and the plant injury at 62 g/ha ([8]; post-emergence, Postemergence) was 35%. For the same molecule, the plant injury at 125 g/ha ([8]; post-emergence, Postemergence) was 55%, the plant injury at 16 g/ha ([8]; pre-emergence, Preemergence) was 0% and the plant injury at 62 g/ha ([8]; pre-emergence, Preemergence) was 25%. It also gave a plant injury at 125 g/ha ([8]; pre-emergence, Preemergence) of 75%, a pest or weed control at 16 g/ha ([9]; post-emergence, Postemergence) of 15% and a pest or weed control at 31 g/ha ([9]; post-emergence, Postemergence) of 60%. It also gave a pest or weed control at 62 g/ha ([9]; post-emergence, Postemergence) of 65%, a pest or weed control at 125 g/ha ([9]; post-emergence, Postemergence) of 70% and a pest or weed control at 16 g/ha ([9]; pre-emergence, Preemergence) of 0%. It also gave a pest or weed control at 31 g/ha ([9]; pre-emergence, Preemergence) of 0%, a pest or weed control at 62 g/ha ([9]; pre-emergence, Preemergence) of 10% and a pest or weed control at 125 g/ha ([9]; pre-emergence, Preemergence) of 90%. For the same molecule, the pest or weed control at 16 g/ha ([10]; post-emergence, Postemergence) was 15%, the pest or weed control at 31 g/ha ([10]; post-emergence, Postemergence) was 30% and the pest or weed control at 62 g/ha ([10]; post-emergence, Postemergence) was 40%. For the same molecule, the pest or weed control at 125 g/ha ([10]; post-emergence, Postemergence) was 98%, the pest or weed control at 16 g/ha ([10]; pre-emergence, Preemergence) was 0% and the pest or weed control at 31 g/ha ([10]; pre-emergence, Preemergence) was 45%. It also gave a pest or weed control at 62 g/ha ([10]; pre-emergence, Preemergence) of 55% and a pest or weed control at 125 g/ha ([10]; pre-emergence, Preemergence) of 100%.
